Experimental data: patent US20250115595A1, “INHIBITORS OF HYPOXIA-INDUCIBLE FACTORS” (The Johns Hopkins University, priority 2021, published 2025)

What was measured:
[1] = tested on: Hep3B human HCC tumor xenografts; assay: Hep3B tumor xenograft in nude mice; type: in vivo, mouse
Description: Effects of 32-134D on Hep3B human HCC tumor xenografts. To analyze the effect of HIF inhibitor 32-134D on tumor xenograft growth, Hep3B cells were injected subcutaneously into immunodeficient mice and when tumors reached a volume of 150 mm3 (designated treatment day 1), the mice were treated with vehicle or 32-134D by daily intraperitoneal injection. […] Treatment with 32-134D for 17 days had no effect on mouse body weight (FIG. 6C), appearance or behavior. We treated additional mice with 32-134D and confirmed inhibition of tumor growth without effects on body weight (FIGS. 7A-C).
Protocols were approved by the Johns Hopkins University Animal Care and Use Committee and used in accordance with the NIH Guide for the Care and Use of Laboratory Animals (National Research Council, 2011). Female nude mice (NCI Athymic NCr-nu/nu) and male C57L/J mice were purchased from Charles River and The Jackson Laboratory, respectively. Hep3B (8×106) and Hepa1-6 (1×107) cells were implanted subcutaneously in 6- to 8-week-old mice, and tumor volume was calculated: V=abc×0.52. For Hep3B tumor studies, once tumors reached 100-150 mm3, mice were randomized into groups to receive daily intraperitoneal injection of either vehicle or 32-134D. For Hepa1-6 tumors, mice were randomized to receive treatment once tumors reached a size of 50-100 mm3. Tumors were harvested 4 hours after the last treatment.
Tumors were fixed in 10% formalin in phosphate buffer for 24 hours and placed in PBS the following day for paraffin embedding and sectioning. Anti-CD31 immunohistochemical staining, hematoxylin and eosin counterstaining, and whole slide scanning were performed by NDB Bio […].
(§1) Human (EPO, SCF, SDF1a, VEGFA) and mouse (Cxcl1, Cxcl2, Cxcl9, Cxcl10, Il6, Il10, IL22, Vegfa) protein concentrations in tumor homogenates were determined using ELISA kits (Table 4) from Novus Biologicals. Optical density was obtained at 450 nm (corrected for readings at 570 nm) using the VICTOR Nivo plate reader (PerkinElmer). Sample protein concentration was calculated by linear regression from a standard curve.

[2] = tested on: intratumoral gene expression; assay: RT-qPCR and ELISA of Hepa1-6 tumor tissue; type: in vivo, mouse
Description: RNA was extracted using TRIzol Reagent (ThermoFisher). Quantitative Real-time PCR was conducted using SYBR Green PCR Master Mix (BioRad) and reactions were run using the BioRad thermal cycler (BioRad). The mRNA expression of target genes was normalized to the expression of 18S rRNA and the fold change (FC) was calculated based on the threshold cycle (Ct) as
as §1

[3] = Mouse pharmacokinetics in neurosensory retina after intraocular injection; type: in vivo
Description: Pharmacokinetic analysis of 32-134D in the neurosensory retina following intraocular administration was determined by liquid chromatography and tandem mass spectrometry (LC-MS/MS) to quantify the concentration of 32-134D in retinal tissue over 14 days following a single 70-ng intraocular injection of 32-134D (see Methods of all parameters). […] The total exposure (area under the curve or AUClast) was 72.3 nmol*day/g.
Mouse pharmacokinetics: C57BL/6 mice were administered 32-134D at 70 ng or 280 ng as a single intraocular injection. Mice (at least 3 mice per time point) were euthanized at 1, 3, 7, or 14 days after injection. For the 280-ng dose, a 10-day time point was added. 32-134D was quantified in retina by LC-MS/MS as previously described (S. Salman et al., 2022, J Clin Invest 132) with the following modifications. Retina tissue samples were homogenized in […] of 1×PBS (pH 7.4) before extraction. The standard curve and quality control samples were prepared in 1×PBS as a surrogate matrix. Retina tissue samples were then quantitated in nmol/g as: nominal concentration (nM)×initial dilution ([tissue weight (mg)+volume of solvent (μl)]/tissue weight (mg)). For all samples <10 nM, the value was reported as below the limits of detection. If at least on samples was >10 nM and one was <10 nM, then one half that value (5 nM) was imputed to calculate the concentration for that specimen and utilized in the average and standard deviation calculations.
Pharmacokinetic parameters: These were calculated from mean concentration-time data using noncompartmental methods in Phoenix WinNonlin version 8.3 (Certara, Princeton, NJ, USA). The Cmax and time to Cmax (Tmax) were the observed values. The AUClast was calculated using the log-linear trapezoidal method to the last quantifiable time point. The λz was determined from at least 3 points on the slope of the terminal phase of the concentration-time profile using a 1/y2 weighting factor. The T1/2 was determined by dividing 0.693 by […]. T1/2 was not reported if the correlation coefficient (r2) for λz was less than 0.9.
Bioanalytical method for mouse pharmacokinetics: Retina tissue samples were homogenized in 200 μL of 1×PBS (pH 7.4) before extraction. The standard curve and quality control samples were prepared in 1×PBS as a surrogate matrix for all matrices. Tissue homogenate or PBS (25 μL) was added to a borosilicate glass test tube and mixed with 150 μL of acetonitrile containing the internal standard (1 ng/mL of EXP-3179). For blank samples, 150 μL of acetonitrile was added without internal standard. Samples were vortex-mixed and centrifuged (1200×g for 5 minutes at ambient temperature) and transferred to an autosampler vial. […] The column effluent was monitored using an AB Sciex Triple Quadrupole 5500 mass spectrometer. […]

## Brc1ccc2c(-c3csc(-c4c[nH]c5c(Br)cccc45)n3)c[nH]c2c1 [Compound 32-134D, 4-(6-bromo-1H-indol-3-yl)-2-(7-bromo-1H-indol-3-yl)thiazole]
[1]; 20 mg/kg daily intraperitoneal
  tumor xenograft growth: Partial growth inhibition
[1]; 40 mg/kg daily intraperitoneal
  tumor xenograft growth: maximal growth inhibition
[1]; 40 mg/kg/day
  mass of tumors harvested: significantly decreased
[1]; 80 mg/kg daily intraperitoneal
  tumor xenograft growth: maximal growth inhibition
[1]; mouse, in vivo
  blood vessel area in tumors (CD31 immunohistochemistry): markedly decreased
[1]; treatment for 17 days
  mouse body weight: no effect
[1]; tumor RNA, RT-qPCR
  tumor mRNAs encoding SCF, PGF, EPO, CD73, PDL1, VEGFA, SDF1: significant decrease
[1]; whole tumor lysates, ELISA
  EPO, SCF, SDF1 and VEGFA protein in tumors: significantly decreased expression
[2]; Angpt14, Epo, Pgf, Vegfa, B7h4, Cd47, Cd70, Cd73, Glut1, Ldha, Pdl1, Tim3, RT-qPCR
  tumor mRNAs encoding angiogenic factors and proteins mediating immunosuppression: significantly decreased
[2]; ELISA on tumor lysates
  Cxcl1, Il10 and Vegfa protein levels in tumors: significantly decreased levels
  Cxcl9 and Cxcl10 protein levels in tumors: significantly increased levels
[2]; RT-qPCR
  tumor expression of Cxcl9 and Cxcl10 mRNA: increased
[2]; mouse, in vivo
  Cxcl1, Il6 and Il10 mRNA levels in tumor tissue: decreased
  IL22 mRNA and protein expression in Hepa1-6 tumors: inhibited
[3]; single 70-ng intraocular injection
  time retina concentration exceeded in vitro IC50 of 3.5 μM: 5.25 days
[3]; single 70-ng intraocular injection, 14 days
  total exposure (AUClast) in neurosensory retina: 72.3 nmol·days/g
[3]; single intraocular injection 280 ng
  terminal half-life (T1/2) in retina: 43.2 h
[3]; single intraocular injection 280 ng, through 14 days
  AUClast in neurosensory retina: 147 nmol·days/g
